{
  "source": "patent US11752111B2",
  "about": "“Use of cannabidivarin in the treatment of autism spectrum disorder, associated disorders and schizophrenia” (GW Research Limited, priority 2016, dated 2023)",
  "key": {"MeCP2 KO mice [1]": {"tested_on": "MeCP2 KO mice", "assay": "Survival in Rett syndrome model", "assay_type": "in vivo, mouse", "experimental": "(§1) CBDV was administered daily at the dose of 2, 20 and 200 mg/kg i.p. starting from PND 28 and the following signs were scored every other day: hindlimb clasping (indication of motor imbalance), tremor, gait (measure of coordination), breathing, mobility and general condition.\n(§2) Starting from PND 28, mice received a daily intraperitoneal injection of CBDV (or vehicle) at the dose of 2, 20 and 200 mg/kg. Animals were then scored every other day to evaluate the effect of CBDV treatment on motor symptoms (hindlimb clasping, gait, mobility) as well as neurological signs and general conditions (breathing abnormalities, tremors and general condition) present in MeCP2 knockout (KO) mice."}, "VPA-exposed rats": {"tested_on": "VPA-exposed rats", "assay": "Short-term memory, novel object recognition test, prenatal VPA model", "assay_type": "in vivo, rat", "experimental": "Pregnant Sprague-Dawley rats (Charles River, Calco, Italy), received a single intraperitoneal injection of 500 mg/kg sodium valproate on the 12.5 day after conception, and control females were injected with physiological saline at the same time. Sodium valproate (Sigma Aldrich, Milan, IT) was dissolved in saline at a concentration of 250 mg/ml.\nCBDV was dissolved in ethanol, cremophor and saline (1:1:18). Symptomatic treatment with CBDV at doses of 0.2, 2, 20, and 100 mg/kg/day i.p. was performed starting from PND 34 (early adolescence) till 56 (early adulthood), both in male and female offspring of dams injected with VPA 500 mg/kg (or vehicle) on day 12.5 after conception. […]\nShort-term memory: The experimental apparatus used for the object recognition test was an open-field box (43×43×32 cm) made of Plexiglas, placed in a dimly illuminated room. The experiment was performed and analysed as previously described (Zamberletti et al, 2014). […]\nEach animal was placed in the arena and allowed to explore two identical previously unseen objects for 5 minutes (familiarization phase). […] During the test phase the time spent exploring the familiar object (Ef) and the new object (En) was videotaped and recorded separately by two observers blind to the treatment groups and the discrimination index was calculated as follows: [(En−Ef)/(En+Ef)]×100."}, "[2]": {"tested_on": "GFAP, CD11b, TNFα expression in the hippocampus", "assay": "Neuroinflammation studies, hippocampus protein expression by Western blotting, prenatal VPA model", "assay_type": "in vivo, rat", "experimental": "At the end of the study, on PND 59, male rats treated with CBDV 20 mg/kg i.p. were sacrificed and the hippocampus was collected 24 hours after the last CBDV injection and stored at −80° C. for evaluation of changes in protein expression of components of the endocannabinoid system (CB1 and CB2 receptors, the endocannabinoid degrading enzymes, FAAH and MAGL and the synthetic enzymes, DAGLα and NAPE-PLD); neuroinflammatory markers (GFAP (astrocytic marker), Iba1 (microglial marker), CD11b (activated microglial marker), TNF-α (proinflammatory cytokine) and iNOS (inflammatory mediator)); synaptic markers (Synaptophysin (synaptic vesicle protein), PSD-95 (post synaptic density protein) and the neurotrophins, BDNF and IGF by Western blotting."}, "MeCP2 KO mice [3]": {"tested_on": "MeCP2 KO mice", "assay": "Novel Object Recognition test, short- and long-term memory, Rett syndrome model", "assay_type": "in vivo, mouse", "experimental": "Furthermore, the efficacy of CBDV in reverting/attenuating the short- and long-term memory deficits present in these mice was evaluated. The Novel Object Recognition (NOR) test was performed before the starting of the treatment Post Natal Day 28 (PND 28), at PND 41 when the first motor symptoms appear and at PND 56 and 66 when the disease is fully manifested.\nAt PND 28, 41, 56 and 66 the effect of CBDV on short- and long-term memory deficits was investigated through the Novel Object Recognition (NOR) test.\nThe experimental apparatus used for the Novel Object Recognition test was an open-field box (43×43×32 cm) made of Plexiglas, placed in a dimly illuminated room. Animals performed each test individually.\nBriefly, each animal was placed in the arena and allowed to explore two identical previously unseen objects for 10 minutes (familiarization phase). After an inter-trial interval of 30 minutes and 24 hours one of the two familiar objects was replaced by a novel, previously unseen object and mice were returned to the arena for the 10-minute test phase.\nDuring the test phase the time spent exploring the familiar object (Ef) and the new object (En) was recorded separately by two observers blind to the groups and the discrimination index was calculated as follows: [(En−Ef)/(En+Ef)]×100."}, "MeCP2 KO mice [4]": {"tested_on": "MeCP2 KO mice", "assay": "Body weight gain in Rett syndrome model", "assay_type": "in vivo, mouse", "experimental": "as §1\nThe CBDV was dissolved in ethanol, cremophor and saline (1:1:18).\nas §2"}},
  "data": [
    {"smiles": "C=C(C)[C@@H]1CCC(C)=C[C@H]1c1c(O)cc(CCC)cc1O", "note": "[CBDV, Cannabidivarin]", "values": [
      {"measurement": "survival rate", "setting": "MeCP2 KO mice [1]; CBDV 200 mg/kg, PND 67, vehicle 25%", "result": 75, "unit": "%"},
      {"measurement": "survival measured at PND 67 (FIG. 5)", "setting": "MeCP2 KO mice [1]; all three doses (2, 20, 200 mg/kg)", "result": "increase survival"},
      {"measurement": "short-term memory deficit, discrimination index (FIG. 2C)", "setting": "VPA-exposed rats; 2, 20 and 100 mg/kg, male and female VPA rats", "result": "completely and significantly reversed"},
      {"measurement": "recognition memory per se", "setting": "VPA-exposed rats; vehicle-treated (non VPA) rats", "result": "without affecting per se recognition memory"},
      {"measurement": "expression of inflammatory markers that were increased (GFAP, CD11b, TNFα) in hippocampus (FIG. 2D)", "setting": "[2]; chronic CBDV 20 mg/kg i.p., male VPA-exposed rats", "result": "completely normalised"},
      {"measurement": "expression of inflammatory markers in hippocampus (FIG. 2D)", "setting": "[2]; chronic CBDV, control rats", "result": "no effect"},
      {"measurement": "long-term memory in the NOR test (FIG. 10)", "setting": "MeCP2 KO mice [3]; 2, 20 and 200 mg/kg, 24 hours inter-trial interval, KO mice", "result": "significantly counteract the cognitive impairment"},
      {"measurement": "short-term memory in the NOR test (FIG. 9)", "setting": "MeCP2 KO mice [3]; 2, 20 and 200 mg/kg, each time point (PND 41, 56, 66), 30 min inter-trial interval, KO mice", "result": "significantly reverted the cognitive impairment"},
      {"measurement": "long-term recognition memory in the NOR test (FIG. 10)", "setting": "MeCP2 KO mice [3]; WT littermates", "result": "without affecting recognition memory"},
      {"measurement": "short-term recognition memory in the NOR test (FIG. 9)", "setting": "MeCP2 KO mice [3]; WT littermates", "result": "without affecting recognition memory"},
      {"measurement": "body weight gain (FIG. 4A)", "setting": "MeCP2 KO mice [4]; 2, 20 and 200 mg/kg i.p. daily PND 28-66, MeCP2 KO mice", "result": "partially prevent the reduction in body weight"},
      {"measurement": "body weight, area under the curve (FIG. 4B)", "setting": "MeCP2 KO mice [4]; KO mice", "result": "significantly rescued body weight"},
      {"measurement": "body weight, area under the curve (FIG. 4B)", "setting": "MeCP2 KO mice [4]; WT controls", "result": "without affecting body weight"}
    ]}
  ]
}
